Values belong to the compound of their own block, whether it stands above or below them.
Columns and labels:
OATP1B1 [1] = target: T1, OATP1B1 (Homo sapiens, UniProt Q9Y6L6)
T1 sequence (Q9Y6L6 1-691): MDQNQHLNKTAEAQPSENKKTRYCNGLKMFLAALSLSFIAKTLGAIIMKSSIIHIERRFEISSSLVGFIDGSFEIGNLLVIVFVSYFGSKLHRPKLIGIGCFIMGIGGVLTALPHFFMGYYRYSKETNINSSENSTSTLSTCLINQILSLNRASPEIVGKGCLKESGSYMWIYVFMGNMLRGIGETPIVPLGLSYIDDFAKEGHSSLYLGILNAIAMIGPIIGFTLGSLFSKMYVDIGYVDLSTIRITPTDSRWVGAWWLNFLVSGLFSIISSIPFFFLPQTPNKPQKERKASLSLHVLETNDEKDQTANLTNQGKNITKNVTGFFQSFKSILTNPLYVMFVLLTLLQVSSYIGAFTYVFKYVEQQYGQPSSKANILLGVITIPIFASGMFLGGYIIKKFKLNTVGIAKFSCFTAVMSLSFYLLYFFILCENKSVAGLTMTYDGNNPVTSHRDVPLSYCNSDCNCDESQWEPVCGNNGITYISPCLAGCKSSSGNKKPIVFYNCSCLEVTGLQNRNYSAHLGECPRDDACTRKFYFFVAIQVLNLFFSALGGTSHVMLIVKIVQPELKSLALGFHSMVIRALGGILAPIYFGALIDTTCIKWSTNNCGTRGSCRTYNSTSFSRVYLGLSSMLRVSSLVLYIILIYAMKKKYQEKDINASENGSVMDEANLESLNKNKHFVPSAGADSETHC
Experimental: (§1) The evaluation of ATSP-7041 as a substrate for OATP1B1 was performed using OATP1B1-expressing HEK293 cells in 24- or 96-well plates according to the manufacturer’s protocol (v1.9 for OATP1B1) with minor modifications. In brief, after equilibration with the transport buffer, the buffer was replaced with a fresh transport buffer containing the indicated concentrations of ATSP-7041 or 1 μM E217βG in the presence or absence of positive control inhibitors (50 μM rifampicin or 10 μM cyclosporine). After incubation for the indicated time at 37 °C, the cells were immediately rinsed twice with an ice-cold transport buffer. Substrates were extracted by incubation with 400 μL (for 24-well) or 100 μL (for 96-well) of 0.1% formic acid in acetonitrile-containing internal standard (IS) (0.125 μM benzyl-ATSP-7041 for ATSP-7041 in uptake experiment of various concentrations of ATSP-7041 or 0.0125 μM for ATSP-7041 in all other experiments of benzyl-ATSP-7041 and 0.1 μM estradiol-3β-glucuronide) for 5 min at 20–25 °C, filtered using a PVDF-based filter, diluted 1.4 times (ATSP-7041) or 2 times (E217βG) with water, and analyzed using LC/MS.

P-gp = P-gp (Homo sapiens, UniProt P08183); experiment: ATP-dependent uptake by inside-out membrane vesicles expressing P-gp; conditions: NMQ 2 μM
Sequence of P-gp (P08183 whole entry): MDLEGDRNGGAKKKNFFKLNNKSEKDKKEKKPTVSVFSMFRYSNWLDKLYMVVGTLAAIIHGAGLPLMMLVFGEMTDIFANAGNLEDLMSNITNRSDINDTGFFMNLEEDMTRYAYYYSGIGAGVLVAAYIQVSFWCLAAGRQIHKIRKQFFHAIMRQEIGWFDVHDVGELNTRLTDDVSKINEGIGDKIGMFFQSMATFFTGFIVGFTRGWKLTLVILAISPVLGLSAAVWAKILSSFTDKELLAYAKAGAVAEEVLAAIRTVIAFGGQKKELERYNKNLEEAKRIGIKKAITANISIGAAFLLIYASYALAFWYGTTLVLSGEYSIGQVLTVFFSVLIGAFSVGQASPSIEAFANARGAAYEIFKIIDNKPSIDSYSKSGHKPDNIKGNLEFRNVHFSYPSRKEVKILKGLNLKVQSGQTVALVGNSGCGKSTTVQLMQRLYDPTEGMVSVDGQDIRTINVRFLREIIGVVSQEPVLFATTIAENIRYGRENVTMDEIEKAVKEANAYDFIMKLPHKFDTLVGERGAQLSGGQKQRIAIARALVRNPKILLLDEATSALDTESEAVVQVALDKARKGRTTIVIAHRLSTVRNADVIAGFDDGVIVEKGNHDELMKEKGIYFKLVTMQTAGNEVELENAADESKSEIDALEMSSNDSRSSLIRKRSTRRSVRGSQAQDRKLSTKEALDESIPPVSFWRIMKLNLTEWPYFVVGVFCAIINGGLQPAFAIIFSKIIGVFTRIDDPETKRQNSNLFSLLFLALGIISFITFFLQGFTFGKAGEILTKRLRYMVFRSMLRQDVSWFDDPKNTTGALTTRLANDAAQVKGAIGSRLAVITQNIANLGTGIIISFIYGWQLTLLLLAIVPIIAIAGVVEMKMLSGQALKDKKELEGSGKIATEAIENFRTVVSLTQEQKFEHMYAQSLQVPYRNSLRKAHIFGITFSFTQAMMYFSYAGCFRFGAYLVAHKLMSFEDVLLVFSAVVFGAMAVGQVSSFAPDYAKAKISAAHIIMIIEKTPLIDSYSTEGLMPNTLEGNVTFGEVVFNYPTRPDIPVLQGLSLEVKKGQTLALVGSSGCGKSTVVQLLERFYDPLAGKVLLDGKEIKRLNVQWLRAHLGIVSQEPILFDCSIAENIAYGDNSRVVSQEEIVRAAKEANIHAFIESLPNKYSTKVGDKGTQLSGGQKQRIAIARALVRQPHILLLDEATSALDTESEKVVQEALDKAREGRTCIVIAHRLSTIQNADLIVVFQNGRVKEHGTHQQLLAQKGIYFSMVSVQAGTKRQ

OATP1B1 [2] = target: T1, OATP1B1; experiment: Uptake by OATP1B1-expressing HEK293 cells (substrate evaluation); conditions: E217βG 1 μM, 5 min, 37 °C
Experimental: as §1
LC/MS analysis data were quantified using Trace Finder 4.1 (Thermo Fisher Scientific, Waltham, MA, USA) for peak detection and area quantification. […] Differences in all figures were analyzed and all data were plotted using GraphPad Prism 9 (GraphPad Software). […]

OATP1B3 = target: T2, OATP1B3 (Homo sapiens, UniProt Q9NPD5); experiment: Uptake by OATP1B3-expressing HEK293 cells (substrate evaluation); conditions: E217βG 3 μM, 5 min, 37 °C
T2 sequence (Q9NPD5 1-702): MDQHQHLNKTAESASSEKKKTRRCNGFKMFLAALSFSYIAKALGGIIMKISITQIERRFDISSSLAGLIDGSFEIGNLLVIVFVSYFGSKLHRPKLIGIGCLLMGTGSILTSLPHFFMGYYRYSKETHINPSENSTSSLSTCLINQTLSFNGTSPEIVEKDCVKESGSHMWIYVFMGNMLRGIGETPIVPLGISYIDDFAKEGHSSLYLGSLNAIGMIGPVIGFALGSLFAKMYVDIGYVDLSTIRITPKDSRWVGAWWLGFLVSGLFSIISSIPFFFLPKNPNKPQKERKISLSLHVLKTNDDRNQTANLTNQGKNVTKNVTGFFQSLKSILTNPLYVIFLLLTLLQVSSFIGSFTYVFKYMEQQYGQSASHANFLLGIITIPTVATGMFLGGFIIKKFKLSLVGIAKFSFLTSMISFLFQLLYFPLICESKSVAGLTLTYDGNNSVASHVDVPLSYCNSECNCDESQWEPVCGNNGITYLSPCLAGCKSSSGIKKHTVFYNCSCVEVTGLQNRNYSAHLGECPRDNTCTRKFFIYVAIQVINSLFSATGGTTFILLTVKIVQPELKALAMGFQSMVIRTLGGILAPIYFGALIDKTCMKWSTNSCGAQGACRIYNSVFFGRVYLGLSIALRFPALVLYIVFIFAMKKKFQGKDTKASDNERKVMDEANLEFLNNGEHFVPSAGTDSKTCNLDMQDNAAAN
Experimental: after the time course assessment (0, 5, 10, 20, 30, 40, and 60 min). Similarly, the inhibitory […]
measuring testosterone and 6β-hydroxytestosterone at 90 min, after the time course assessment (0, 10, 20, 40, 60, 90, and 120 min). Other human liver S9 (B, C, and D) fractions were also used to evaluate vendor differences. Midazolam, 1ʹ-hydroxymidazolam, testosterone, and 6β-hydroxytestosterone were detected using LC/MS.
4. Evaluation of ATSP-7041 as a substrate of transporters
The evaluation of ATSP-7041 as a substrate for OATP1B1 and OATP1B3 transporters was performed using OATP1B-expressing HEK293 cells in 24-well plates according to the manufacturer’s protocol (v1.9 for OATP1B1 and v2.0 for OATP1B3) with minor modifications.
In brief, after equilibration with the transport buffer, the buffer was replaced with a fresh transport buffer containing ATSP-7041 (0.2 μM) or E217βG (1 μM for OATP1B1 or 3 μM for OATP1B3). After incubation for 5 min at 37 °C, the cells were immediately rinsed twice with ice-cold transport buffer. Substrates were extracted by incubation with 400 μL of 0.1% formic acid in acetonitrile containing IS (0.0125 μM benzyl-ATSP-7041 and 0.1 μM estradiol-3β-glucuronide) for 5 min at 20-25 °C, filtered using a PVDF-based filter, diluted 1.4 times (ATSP-7041) or 2 times (E217βG) with water, and analyzed by LC/MS. […]

OATP1B1 [3] = target: T1, OATP1B1; remark: listed apart in the source
Experimental: The inhibitory activities of ATSP-7041 on OATP1B1 were evaluated using OATP1B-expressing HEK293 cells in 96-well plates as described above. For dose-dependent inhibition, ATSP-7041 at the indicated concentrations was added to the transport buffer, and E217βG was used as the substrate. To study the pre-incubation effect, the cells were pre-incubated with 10 μM ATSP-7041 or 10 μM cyclosporine in transport buffer after equilibration with the transport buffer for 30 min at 37 °C and washed twice before the replacement of the transport buffer containing E217βG.
LC/MS analysis data were quantified using Trace Finder 4.1 (Thermo Fisher Scientific, Waltham, MA, USA) for peak detection and area quantification. To study the transport activities of OATP1B1, the OATP1B1-mediated uptake of ATSP-7041 and E217βG was determined by normalization with IS (divide the area of ion peak) and subsequent background-corrected uptake using mock cells. To evaluate the inhibitory activities of ATSP-7041 on OATP1B1, transporter activities were determined as a percent of the control (activities without ATSP-7041) at each concentration, and the half maximal inhibitory concentration (IC50) for the inhibition of OATP1B1 activity by ATSP-7041 was determined by fitting a curve (inhibitor concentrations vs. normalized response) using GraphPad Prism 8 (GraphPad Software, San Diego, CA, USA). […]

in vitro = conditions: human, s9, pH 7.4
BCRP = target: T3, BCRP (Homo sapiens, UniProt Q9UNQ0); experiment: ATP-dependent uptake by inside-out membrane vesicles expressing BCRP; conditions: Lucifer yellow 50 μM
T3 sequence (Q9UNQ0 1-655): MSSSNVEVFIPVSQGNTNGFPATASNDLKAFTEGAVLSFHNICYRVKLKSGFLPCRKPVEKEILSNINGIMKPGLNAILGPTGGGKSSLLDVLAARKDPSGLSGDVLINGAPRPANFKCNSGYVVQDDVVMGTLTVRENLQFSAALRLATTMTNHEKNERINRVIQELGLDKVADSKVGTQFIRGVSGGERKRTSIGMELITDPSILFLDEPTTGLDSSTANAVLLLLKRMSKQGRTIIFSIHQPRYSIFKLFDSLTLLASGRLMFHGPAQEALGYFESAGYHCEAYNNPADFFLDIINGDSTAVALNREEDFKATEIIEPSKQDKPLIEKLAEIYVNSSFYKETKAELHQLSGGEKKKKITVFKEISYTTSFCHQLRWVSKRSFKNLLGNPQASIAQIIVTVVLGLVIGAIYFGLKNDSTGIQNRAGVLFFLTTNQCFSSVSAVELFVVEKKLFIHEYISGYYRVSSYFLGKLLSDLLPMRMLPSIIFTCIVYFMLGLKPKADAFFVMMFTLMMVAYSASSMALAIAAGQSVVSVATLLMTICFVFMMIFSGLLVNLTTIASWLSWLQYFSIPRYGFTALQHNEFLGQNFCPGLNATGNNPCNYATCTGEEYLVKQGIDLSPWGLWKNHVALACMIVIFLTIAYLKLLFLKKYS

Compound: CO[C@H]1/C=C/O[C@@]2(C)Oc3c(C)c(O)c4c(O)c(c(/C=N/N5CCN(C)CC5)c(O)c4c3C2=O)NC(=O)/C(C)=C\C=C\[C@H](C)[C@H](O)[C@@H](C)[C@@H](O)[C@@H](C)[C@H](OC(C)=O)[C@@H]1C [rifampicin]
uptake of control substrate E217βG by OATP1B1-expressing HEK293 cells with inhibitor, % of without inhibitor (OATP1B1 [1]; rifampicin 50 μM, E217βG 1 μM, 5 min co-incubation): < 4%
effect of index inhibitors on OATP1B1-dependent uptake of ATSP-7041 (OATP1B1 [1]; substrate ATSP-7041 0.2 μM, rifampicin 50 μM or cyclosporine 10 μM, 5 and 60 min, 37 °C): significantly inhibited

Compound: C=C[C@H]1C[N+]2(C)CC[C@H]1C[C@@H]2[C@@H](O)c1ccnc2ccc(OC)cc12 [NMQ, N-methyl-quinidine]
ATP-dependent uptake of positive control substrate by P-gp compared to mock vesicles (P-gp): clearly observed

Compound: C[C@]12CC[C@@H]3c4ccc(O)cc4CC[C@H]3[C@@H]1CC[C@@H]2O[C@@H]1O[C@H](C(=O)O)[C@@H](O)[C@H](O)[C@H]1O [E217βG, Estradiol-17β-glucuronide]
uptake of control substrate in OATP1B1-transfected HEK293 cells relative to mock cells (OATP1B1 [2]): approximately 611 fold
uptake of control substrate in OATP1B3-transfected HEK293 cells relative to mock cells (OATP1B3): ~137 fold

IC50 (OATP1B1 [3]): 0.81 µM
inhibition at 10 µM (OATP1B1 [3]): > 96%
remaining at 24 h, 0.5 μM (in vitro): 91.6%
Compound: CC(=O)N[C@@H](CC(C)C)C(=O)N[C@H](C(=O)N[C@@H](Cc1ccccc1)C(=O)N[C@]1(C)CCCCCCC=CCCC[C@@](C)(C(=O)N[C@@H](CO)C(=O)N[C@@H](C)C(=O)N[C@@H](C)C(N)=O)NC(=O)[C@H](CC2CCC2)NC(=O)[C@H](CCC(N)=O)NC(=O)[C@H](C)NC(=O)[C@H](Cc2c[nH]c3ccccc23)NC(=O)[C@H](Cc2ccc(O)cc2)NC(=O)[C@H](CCC(=O)O)NC1=O)[C@@H](C)O [ATSP-7041]

Compound: Lucifer yellow
ATP-dependent uptake of positive control substrate by BCRP compared to mock vesicles (BCRP): clearly observed
